Values joined by “and” are separate entries in the source; they are usually repeats but may differ in a detail not shown here. Equal values may be shown once.

This assay concerns the target T1, Thromboxane A2 receptor (Homo sapiens, UniProt P21731).
T1 sequence (P21731 whole entry): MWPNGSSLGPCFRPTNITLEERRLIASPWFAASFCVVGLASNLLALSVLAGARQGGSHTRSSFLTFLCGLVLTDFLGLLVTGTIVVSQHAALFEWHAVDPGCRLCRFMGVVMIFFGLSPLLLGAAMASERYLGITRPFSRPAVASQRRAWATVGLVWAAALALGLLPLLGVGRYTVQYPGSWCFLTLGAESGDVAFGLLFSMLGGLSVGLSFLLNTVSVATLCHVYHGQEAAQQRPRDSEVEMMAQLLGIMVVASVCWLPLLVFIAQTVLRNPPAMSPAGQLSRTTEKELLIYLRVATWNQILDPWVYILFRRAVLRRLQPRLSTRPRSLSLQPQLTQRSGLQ
A word on the Ki: it is a dissociation constant, usually derived from enzyme kinetics or from competition with a known ligand. Read a low Ki as tighter binding. On to `O=C(O)CCC/C=C\C[C@@H]1[C@@H](/C=C/[C@@H](O)COc2ccc(I)cc2)[C@H]2CC[C@@H]1O2` [CAS_128719-90-4], for which the Ki is 3.7 nM and 1.4 nM.
For the molecule `CCCCC[C@H](O)/C=C/C1[C@@H](C/C=C\CCCC(=O)O)[C@H]2CO[C@@H]1C2` (some centres undefined) [U46619], the Ki is 77 nM and 82 nM and 50 nM.
Take `CCCCCC(O)C=CC1C2COC(C2)C1CC=CCCCC(=O)O` (centres undefined) [NSC_114865]: the Ki is 64 nM and 44 nM and 38 nM.
The same measure for `CC1(C)C2CC(NCC(O)Cc3ccc(O)c(I)c3)C(CC=CCCCC(=O)O)C1C2` (centres undefined) [NSC_122979]: 117 nM and 400 nM and 121 nM.

For the origin of these results see BindingDB's records for PubMed 7965765 (University of Cincinnati, 1994).
